# Publication PMC12432892, “Therapeutic applications of interface-mimicking peptides for targeting the SARS-CoV-2 NSP12-NSP8 RdRp complex” (Molecular Therapy, 2025)
# Tests used:
# Plasma stability = type: in vitro ADME; conditions: mouse plasma (ICR, male, K2-EDTA), LC-MS/MS; for Plasma Stability Half-life / time to complete loss of detectable peptide in plasma: 10 μM; for Plasma Stability Half-life / half-life at 10 μM: 37°C, 0, 20, 40, 60, 120 min, duplicate (n = 2); for time to complete loss of detectable peptide in plasma: 37°C, n = 2
# Protocol: Plasma stability of the peptides was evaluated using mouse plasma (ICR, male, K2-EDTA) purchased from Innovative Research. Each peptide (10 μM final concentration) was incubated at 37°C for 0, 20, 40, 60, and 120 min. Samples were processed and analyzed by LC-MS/MS, as described above. Procaine was used as a positive control.
# (§1) All in vitro stability experiments were performed in duplicate (n = 2). Since the standard deviation was less than 20% in all cases, no additional replicates were conducted.
# [1] = Liver microsomal stability; type: in vitro ADME, mouse; conditions: for Metabolic Stability Evaluation: classified based on in vivo CL_int values (footnote of Table S3); for half-life at 10 μM / remaining at 1 h, 10 μM / microsomal CLint at 10 μM: mouse liver microsomes (CD-1, pooled), 37°C; for half-life at 10 μM: NADPH, 0, 5, 15, 30, 60 min, duplicate (n = 2); for half-life at 10 μM / remaining at 1 h, 10 μM: LC-MS/MS; for remaining at 1 h, 10 μM / microsomal CLint at 10 μM: NADPH; for remaining at 1 h, 10 μM: n = 2, read-out: Microsomal Stability Remaining at 60 min; for microsomal CLint at 10 μM: calculated from the depletion rate, read-out: CL_int, microsomal; for CL_int, in vivo: scaled from microsomal CL_int to in vivo liver clearance using established mouse parameters
# Protocol: Reactions were quenched and peptide concentrations were quantified using liquid chromatography-tandem mass spectrometry (LC-MS/MS) (AB Sciex QTRAP 6500+, Analyst software version 1.7.2). Clearance and half-life were calculated by non-compartmental analysis, and values were converted to hepatic clearance (CLint, liver) using standard scaling factors.
# as §1
# [2] = tested on: wild-type ancestral SARS-CoV-2 L-clade strain; type: cell-based
# Vero-E6 cells = test: in vitro; type: cell-based; conditions: MTT, 24 h
# Protocol: (§2) The cytotoxicity of test samples was assessed in Vero-E6 cells using the MTT assay, following the manufacturer’s protocol for the CellTiter 96 Non-radioactive Cell Proliferation Assay (Promega). Briefly, […] cells were seeded in 96-well plates at a density of 2 × 10^4 cells per well and incubated for 24 h. Following this, cells were treated with test samples at concentrations ranging from 0.2 to 40 μM and incubated for an additional 24 h. After incubation, 15 μL of MTT reagent (dye solution) was added to each well, and the cells were further incubated for 4 h. Subsequently, 100 μL of solubilization/stop solution was added to dissolve the formazan crystals. The optical density was measured at 570 nm, and statistical significance was determined by comparing the results to those of the mock-treated cells. […]
# (§3) Figure S5. MTT assay of peptides including scrambled version
# (§4) Vero-E6 cells were treated with NSP8-based peptides at concentrations ranging from 0.2 to 40 μM and incubated for an additional 24 hours. Cytotoxicity was evaluated using the MTT assay to assess the impact of the peptides on cell viability. According to IOS 10993-5 guidelines, cell […]
# (§5) moderate cytotoxicity, and below 40% signifies strong cytotoxicity. […]
# in vitro = type: cell-based; conditions: Vero-E6 cells, MTT, 40 μM peptide, read-out: cell viability
# Protocol: as §2, §3, §4, §5
# NSP12-NSP8-NSP7 complex = biological target: T1, NSP12-NSP8-NSP7 complex (Severe acute respiratory syndrome coronavirus 2, UniProt P0DTD1); type: binding, SARS-CoV-2; conditions: for KD of the NSP8-NSP7-RNA ligand complex to NSP12 in the presence of the peptide: MST, labeled NSP12 20 nM, PBS with Tween 20, mean ± SD, more than three independent analyses, no-peptide Ctrl 11.9-12.9 nM
# T1 construct: made in house; host or cells: NSP12: baculovirus in Hifive insect cells; NSP7 and NSP8: E. coli BL21(DE3), pET-11
# SARS-CoV-2 RdRp = biological target: T2, SARS-CoV-2 RdRp (Severe acute respiratory syndrome coronavirus 2, UniProt P0DTD1); type: cell-based
# T2 construct: The SARS-CoV-2 reporter and NSP12, NSP7, and NSP8 genes were cloned into pcDNA3.1(+) plasmid vectors; expressed in transfected cells; host or cells: 293T (HEK-293T) cells, pcDNA3.1(+) plasmids
# [3] = concentrations between 20 and 40 μM
Molecule,Plasma Stability Half-life (Plasma stability),time to complete loss of detectable peptide in plasma (Plasma stability),half-life at 10 μM (Plasma stability),Metabolic Stability Evaluation [1],half-life at 10 μM [1],"remaining at 1 h, 10 μM [1]",microsomal CLint at 10 μM [1],"CL_int, in vivo [1]","viral replication (infectious virus titers, TCID50), in words [2]",cytotoxicity (ISO 10993-5) (Vero-E6 cells; at 40 μM),"viability at 24 h, 40 µM (in vitro)","peptide aggregation in the MST assay (NSP12-NSP8-NSP7 complex; PBS with Tween 20 buffer, peptide 24 μM)","effect on polymerase activity, in words (SARS-CoV-2 RdRp)",cytotoxicity (ISO 10993-5) (Vero-E6 cells; [3]),KD of the NSP8-NSP7-RNA ligand complex to NSP12 in the presence of the peptide (NSP12-NSP8-NSP7 complex)
CC[C@H](C)[C@@H]1NC(=O)[C@H](CC(N)=O)NC(=O)[C@H](CC(N)=O)NC(=O)[C@H](CC(C)C)NC(=O)[C@H](C)NC(=O)[C@H](CC(=O)O)NC(=O)[C@H](CC(N)=O)NC(=O)[C@@H](NC(C)=O)CSSC[C@@H](C(=O)NCC(=O)N[C@@H](CCCNC(=N)N)C(=O)N[C@@H](CCCCN)C(=O)N[C@@H](CCCCN)C(=O)N[C@@H](CCCNC(=N)N)C(=O)N[C@@H](CCCNC(=N)N)C(=O)N[C@@H](CCC(N)=O)C(=O)N[C@@H](CCCNC(=N)N)C(=O)N[C@@H](CCCNC(=N)N)C(=O)N[C@@H](CCCNC(=N)N)C(=O)N2CCC[C@H]2C(=O)N[C@@H](CCC(N)=O)C(N)=O)NC(=O)[C@H](C)NC(=O)[C@H]([C@@H](C)O)NC(=O)[C@H]([C@@H](C)O)NC(=O)[C@H](CC(C)C)NC(=O)[C@@H]2CCCN2C(=O)[C@H]([C@@H](C)CC)NC(=O)[C@H]([C@@H](C)CC)NC(=O)[C@H](CC(N)=O)NC(=O)[C@H](CC(C)C)NC(=O)[C@@H]2CCCN2C(=O)[C@H](C(C)C)NC(=O)[C@H](CS)NC(=O)CNC(=O)[C@H](CC(=O)O)NC(=O)[C@H](CCCNC(=N)N)NC(=O)[C@H](C)NC(=O)[C@H](CC(N)=O)NC(=O)[C@H](CC(N)=O)NC(=O)[C@H]([C@@H](C)CC)NC1=O [N8-Pepα_cyc],approximately 3 min,≤ 20 min,3 min,High metabolism,23.3 min,14.9%,59.6 µL/min/mg,234.7 mL/min/kg,strongest antiviral effects,no cytotoxicity (cell viability above 80% indicates no cytotoxicity),> 80%,–,–,–,–
Ac-YGRKKRRQRRRGSGVVIPKIDLAAPNLMDLVPCRIATTG-NH2 [N8-PepβD_sc],–,–,–,–,–,–,–,–,–,–,–,could not be determined due to peptide aggregation,–,–,–
CCC(CC)COC(=O)[C@H](C)N[P@](=O)(OC[C@H]1O[C@@](C#N)(c2ccc3c(N)ncnn23)[C@H](O)[C@@H]1O)Oc1ccccc1 [remdesivir],–,–,–,–,–,–,–,–,–,–,–,–,dose-dependent reduction in polymerase activity,–,–
CC[C@H](C)[C@H](NC(=O)[C@H](CC(N)=O)NC(=O)[C@H](CC(N)=O)NC(=O)[C@H](CC(C)C)NC(=O)CNC(=O)[C@H](CO)NC(=O)CNC(=O)[C@H](CCCNC(=N)N)NC(=O)[C@H](CCCNC(=N)N)NC(=O)[C@H](CCCNC(=N)N)NC(=O)[C@H](CCC(N)=O)NC(=O)[C@H](CCCNC(=N)N)NC(=O)[C@H](CCCNC(=N)N)NC(=O)[C@H](CCCCN)NC(=O)[C@H](CCCCN)NC(=O)[C@H](CCCNC(=N)N)NC(=O)CNC(=O)[C@H](Cc1ccc(O)cc1)NC(C)=O)C(=O)N[C@H](C(=O)N[C@@H](CC(N)=O)C(=O)N[C@@H](CC(N)=O)C(=O)N[C@@H](C)C(=O)N[C@@H](CCCNC(=N)N)C(=O)N[C@@H](CC(=O)O)C(=O)NCC(=O)N[C@@H](CS)C(=O)N[C@H](C(=O)N1CCC[C@H]1C(=O)N[C@@H](CC(C)C)C(=O)N[C@@H](CC(N)=O)C(=O)N[C@H](C(=O)N[C@H](C(=O)N1CCC[C@H]1C(=O)N[C@@H](CC(C)C)C(=O)N[C@H](C(=O)N[C@H](C(=O)N[C@@H](C)C(=O)N[C@@H](C)C(=O)N[C@@H](CCCCN)C(=O)N[C@@H](CC(C)C)C(=O)N[C@@H](CCSC)C(=O)N[C@H](C(=O)N[C@H](C(N)=O)C(C)C)C(C)C)[C@@H](C)O)[C@@H](C)O)[C@@H](C)CC)[C@@H](C)CC)C(C)C)[C@@H](C)CC [N8-Pepβ],approximately 3 min,≤ 20 min,3 min,High metabolism,9.8 min,15.1%,142 µL/min/mg,559.2 mL/min/kg,–,–,–,–,–,weak cytotoxicity (80%-60% suggests weak cytotoxicity),–
Ac-YGRKKRRQRRRGSGINVDAPMNNAGLKLTIRPCLTVIVNANIL-NH2 [N8-Pepβ_sc],–,–,–,–,–,–,–,–,–,–,–,–,–,–,14.2 ± 0.9 nM
Ac-INRNLTVPNICTPGILINADANADLNGRKKRRQRRRPQ-NH2 [N8-Pepα_sc],–,–,–,–,–,–,–,–,–,–,–,–,–,–,14.3 ± 1.0 nM
CC[C@H](C)[C@H](NC(=O)[C@H](CC(N)=O)NC(=O)[C@H](CC(C)C)NC(=O)[C@@H]1CCCN1C(=O)[C@@H](NC(=O)[C@H](CS)NC(=O)CNC(=O)[C@H](CC(=O)O)NC(=O)[C@H](CCCNC(=N)N)NC(=O)[C@H](C)NC(=O)CNC(=O)[C@H](CO)NC(=O)CNC(=O)[C@H](CCCNC(=N)N)NC(=O)[C@H](CCCNC(=N)N)NC(=O)[C@H](CCCNC(=N)N)NC(=O)[C@H](CCC(N)=O)NC(=O)[C@H](CCCNC(=N)N)NC(=O)[C@H](CCCNC(=N)N)NC(=O)[C@H](CCCCN)NC(=O)[C@H](CCCCN)NC(=O)[C@H](CCCNC(=N)N)NC(=O)CNC(=O)[C@H](Cc1ccc(O)cc1)NC(C)=O)C(C)C)C(=O)N[C@H](C(=O)N1CCC[C@H]1C(=O)N[C@@H](CC(C)C)C(=O)N[C@H](C(=O)N[C@H](C(=O)N[C@@H](C)C(=O)N[C@@H](C)C(=O)N[C@@H](CCCCN)C(=O)N[C@@H](CC(C)C)C(=O)N[C@@H](CCSC)C(=O)N[C@H](C(=O)N[C@H](C(=O)N[C@H](C(=O)N1CCC[C@H]1C(=O)N[C@@H](CC(=O)O)C(N)=O)[C@@H](C)CC)C(C)C)C(C)C)[C@@H](C)O)[C@@H](C)O)[C@@H](C)CC [N8-PepβD],approximately 3 min,≤ 20 min,3 min,High metabolism,17.8 min,7.8%,77.9 µL/min/mg,306.7 mL/min/kg,–,–,–,–,–,weak cytotoxicity (80%-60% suggests weak cytotoxicity),–
CC[C@H](C)[C@H](NC(=O)[C@H](CC(N)=O)NC(=O)[C@H](CC(N)=O)NC(=O)[C@H](CC(C)C)NC(=O)[C@H](C)NC(=O)[C@H](CC(=O)O)NC(=O)[C@H](CC(N)=O)NC(C)=O)C(=O)N[C@H](C(=O)N[C@@H](CC(N)=O)C(=O)N[C@@H](CC(N)=O)C(=O)N[C@@H](C)C(=O)N[C@@H](CCCNC(=N)N)C(=O)N[C@@H](CC(=O)O)C(=O)NCC(=O)N[C@@H](CS)C(=O)N[C@H](C(=O)N1CCC[C@H]1C(=O)N[C@@H](CC(C)C)C(=O)N[C@@H](CC(N)=O)C(=O)N[C@H](C(=O)N[C@H](C(=O)N1CCC[C@H]1C(=O)N[C@@H](CC(C)C)C(=O)N[C@H](C(=O)N[C@H](C(=O)N[C@@H](C)C(=O)NCC(=O)N[C@@H](CCCNC(=N)N)C(=O)N[C@@H](CCCCN)C(=O)N[C@@H](CCCCN)C(=O)N[C@@H](CCCNC(=N)N)C(=O)N[C@@H](CCCNC(=N)N)C(=O)N[C@@H](CCC(N)=O)C(=O)N[C@@H](CCCNC(=N)N)C(=O)N[C@@H](CCCNC(=N)N)C(=O)N[C@@H](CCCNC(=N)N)C(=O)N1CCC[C@H]1C(=O)N[C@@H](CCC(N)=O)C(N)=O)[C@@H](C)O)[C@@H](C)O)[C@@H](C)CC)[C@@H](C)CC)C(C)C)[C@@H](C)CC [N8-Pepα],approximately 3 min,≤ 20 min,3 min,High metabolism,9.2 min,0%,151 µL/min/mg,594.7 mL/min/kg,strongest antiviral effects,no cytotoxicity (cell viability above 80% indicates no cytotoxicity),> 80%,–,–,–,–
